Where a SMILES comes first, the peptide text is derived from it. Bridges are numbered along the chain shown (N, C = ends). [ ]: non-standard residue; d: D form. 1Nal = N[C@@H](Cc1cccc2ccccc12)C(=O)O; Nle = CCCC[C@H](N)C(=O)O
Key:
[1] = target: T1, hMC5-R (Homo sapiens, UniProt P33032); experiment: Competitive inhibition binding assay using [I125]-NDP-α-MSH, hMC5-R; conditions: radioligand [I125]-NDP-α-MSH, HEK-293 membranes; read-out: Ki (NDP-α-MSH) MC5-R
T1 construct: expressed in transfected cells; host or cells: HEK-293
Procedure: (§1) The assay tube also contained a chosen concentration of the test peptide of this invention, typically a 1 μM concentration, for determining its efficacy in inhibiting the binding of [I^125]NDP-α-MSH to the receptor.
(§2) The assay mixture was incubated for 60 minutes at 37° C., then filtered and the membranes washed three times with ice cold phosphate buffered saline. The filter was dried and counted in a gamma counter for remaining radioactivity bound to the membranes. 100% specific binding was defined as the difference in radioactivity (cpm) bound to cell membranes in the absence and presence of 1 μM NDP-α-MSH. […] Each assay was conducted in triplicate. The Ki (nM) of certain peptides of the invention were determined using similar assay protocols and testing peptides over a wider dose range.

[2] = target: T2, hMC4-R (HEK-293 cells) (Homo sapiens, UniProt P32245); experiment: cAMP functional assay for agonist/antagonist status, MC4-R; assay type: cell-based; conditions: for EC50: cAMP accumulation; for agonist/antagonist status as to MC4-R: cAMP assay; for efficacy relative to NDP-α-MSH, MC4-R: cAMP response ratio to NDP-α-MSH
T2 construct: expressed in transfected cells; host or cells: HEK-293
Procedure: (§3) Functional evaluation of peptides at melanocortin receptors was performed by measuring the accumulation of intracellular cAMP in HEK-293 cells expressing hMC3-R, hMC4-R or hMC5-R, and in B-16 mouse melanoma cells expressing MC1-R. Cells suspended in Earle's Balanced Salt Solution containing 10 mM HEPES (pH 7.5), 5 mM MgCl2, 1 mM glutamine, 0.5% albumin and 0.3 mM 3-isobutyl-1-methyl-xanthine, a phosphodiesterase inhibitor, were plated in 96 well plates at a density of 0.5×10^5 cells per well. Cells were incubated with the test peptides in the presence or absence of NDP-α-MSH for 1 hour at 37° C. cAMP levels in the cell lysates were measured using an EIA kit (Amersham). Data analysis and EC50 values were determined using nonlinear regression analysis with Prism Graph-Pad software.
(§4) The agonist/antagonist status with respect to MC1-R, MC4-R and MC5-R of certain peptides of the invention was determined. Antagonistic activity was determined by measuring the inhibition of α-MSH-induced or NDP-α-MSH-induced cAMP levels following exposure to the peptides as in the preceding descriptions.
Evaluation of the molecules to elicit a functional response in HEK-293 cells expressing hMC4-R for agonistic activity was done by measuring the accumulation of intracellular cAMP following treatment. Confluent HEK-293 cells over-expressing MC4-R receptors were detached by enzyme free cell suspension buffer. Cells were suspended in Earle's Balanced Salt Solution containing 10 mM HEPES (pH 7.5), 1 mM MgCl2, 1 mM glutamine, 0.5% albumin and 0.3 mM 3-isobutyl-1-methyl-[…]. The cells were plated in a 96 well plate at a density of 0.5×10^5 cells per well and pre-incubated for 60 minutes. The cells were then challenged with the test peptides dissolved in dimethylsulfoxide (DMSO) at a concentration range of 0.05-5000 nM in a total assay volume of 200 μL for 1 hour at 37° C. The concentration of DMSO was held at 1% in the assay mixture. NDP-α-MSH was used as the reference agonist. At the end of the incubation period the cells were disrupted by the addition of 50 μL lysis buffer from the cAMP EIA kit (Amersham). Complete rupture of the cells was ensured by pipetting the cells. cAMP levels in the cell lysates were measured after appropriate dilution using the EIA kit (Amersham) method. Data analysis and EC50 values were determined by using nonlinear regression analysis with the Prism Graph-Pad software.

[3] = target: T3, MC4-R (Homo sapiens, UniProt P32245); experiment: Competitive inhibition binding assay using [I125]-NDP-α-MSH, hMC4-R; conditions: radioligand [I125]-NDP-α-MSH, HEK-293 membranes; read-out: Ki (NDP-α-MSH) MC4-R
T3 construct: expressed in transfected cells; host or cells: HEK-293
Procedure: as §1, §2

[4] = target: T4, hMC3-R (HEK-293 cells) (Homo sapiens, UniProt P41968); experiment: cAMP functional assay for agonist/antagonist status, MC3-R; assay type: cell-based; conditions: for EC50: cAMP accumulation; for agonist/antagonist status as to MC3-R: cAMP assay; for efficacy relative to NDP-α-MSH, MC3-R: cAMP response ratio to NDP-α-MSH
T4 construct: expressed in transfected cells; host or cells: HEK-293
Procedure: as §3, §4

[5] = target: T5, MC3-R (Homo sapiens, UniProt P41968); experiment: Competitive inhibition binding assay using [I125]-NDP-α-MSH, hMC3-R; conditions: radioligand [I125]-NDP-α-MSH, HEK-293 membranes; read-out: Ki (NDP-α-MSH) MC3-R
T5 construct: expressed in transfected cells; host or cells: HEK-293
Procedure: as §1, §2

[6] = target: T3, MC4-R; experiment: Competitive inhibition Ki (AgRP), MC4-R; assay type: binding; conditions: AgRP as competing ligand
[7] = target: T5, MC3-R; experiment: Competitive inhibition Ki (AgRP), MC3-R; assay type: binding; conditions: AgRP as competing ligand
Procedure: as §2

[8] = system: male Sprague-Dawley rats; experiment: Penile erection induction in male rats; assay type: in vivo, rat
Procedure: The ability of peptides to induce penile erection (PE) in male rats was evaluated with selected peptides. Male Sprague-Dawley rats weighing 200-250 g were kept on a 12 hour on/off light cycle with food and water ad libitum. All behavioral studies were performed between 10 a.m. and 5 p.m. Groups of 4-8 rats were administered peptides at a variety of doses via an intravenous (IV) route, and may alternatively be administered peptide by an intracerebroventricular (ICV) route. Immediately after treatment, rats were placed into individual polystyrene cages (27 cm long, 16 cm wide, and 25 cm high) for behavioral observation. […] For rats administered peptide by an ICV routes, rats are observed for two hours.
Selected peptides were tested as in Example 5. Peptide was administered by IV routes, and used at dose levels ranging from 1 μg/kg to 1000 μg/kg.

[9] = target: T6, MC1-R (B-16 mouse melanoma cells) (Mus musculus, UniProt Q01727); experiment: cAMP functional assay for agonist/antagonist status, MC1-R; assay type: cell-based; conditions: for EC50: cAMP accumulation; for agonist/antagonist status as to MC1-R: cAMP assay; for efficacy relative to NDP-α-MSH, MC1-R: cAMP response ratio to NDP-α-MSH
T6 construct: B-16 mouse melanoma cells (containing MC1-R); endogenous in cells; host or cells: B-16 mouse melanoma cells
Procedure: Data analysis and EC50 values were determined using nonlinear regression analysis with Prism Graph-Pad software.
The agonist/antagonist status with respect to MC1-R, MC4-R and MC5-R of certain peptides of the invention was determined.

[10] = 1000 μg/kg IV, groups of 6 rats, one hour observation
[11] = peak dose 300 μg/kg IV, groups of 6 rats

T3 sequence (P32245 whole entry): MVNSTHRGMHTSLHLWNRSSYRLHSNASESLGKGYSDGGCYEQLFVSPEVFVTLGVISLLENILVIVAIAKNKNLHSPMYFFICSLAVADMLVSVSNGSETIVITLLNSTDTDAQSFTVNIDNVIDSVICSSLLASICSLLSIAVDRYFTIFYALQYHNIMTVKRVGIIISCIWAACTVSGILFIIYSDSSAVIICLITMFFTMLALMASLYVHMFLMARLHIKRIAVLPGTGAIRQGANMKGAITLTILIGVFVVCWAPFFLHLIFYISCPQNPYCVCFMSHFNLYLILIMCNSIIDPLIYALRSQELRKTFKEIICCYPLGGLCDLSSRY
T2 sequence (P32245 whole entry): as above
T6 sequence (Q01727 whole entry): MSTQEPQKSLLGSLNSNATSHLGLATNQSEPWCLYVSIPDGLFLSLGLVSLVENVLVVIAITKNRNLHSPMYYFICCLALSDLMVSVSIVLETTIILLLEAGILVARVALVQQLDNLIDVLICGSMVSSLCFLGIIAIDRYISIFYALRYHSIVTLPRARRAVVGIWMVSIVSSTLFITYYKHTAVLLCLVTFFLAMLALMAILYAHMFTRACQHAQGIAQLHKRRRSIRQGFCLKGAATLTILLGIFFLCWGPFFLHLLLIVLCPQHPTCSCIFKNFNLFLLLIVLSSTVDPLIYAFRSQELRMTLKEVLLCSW
T5 sequence (P41968 whole entry): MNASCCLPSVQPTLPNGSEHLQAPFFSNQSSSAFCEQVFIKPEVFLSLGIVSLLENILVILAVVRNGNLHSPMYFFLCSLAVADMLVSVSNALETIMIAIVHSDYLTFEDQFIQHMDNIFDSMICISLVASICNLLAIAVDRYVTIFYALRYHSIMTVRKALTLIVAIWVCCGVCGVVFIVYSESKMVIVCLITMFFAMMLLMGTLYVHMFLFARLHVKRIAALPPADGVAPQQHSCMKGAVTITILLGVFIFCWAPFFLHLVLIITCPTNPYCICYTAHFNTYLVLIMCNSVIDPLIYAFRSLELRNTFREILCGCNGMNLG
T4 sequence (P41968 whole entry): as above
T1 sequence (P33032 whole entry): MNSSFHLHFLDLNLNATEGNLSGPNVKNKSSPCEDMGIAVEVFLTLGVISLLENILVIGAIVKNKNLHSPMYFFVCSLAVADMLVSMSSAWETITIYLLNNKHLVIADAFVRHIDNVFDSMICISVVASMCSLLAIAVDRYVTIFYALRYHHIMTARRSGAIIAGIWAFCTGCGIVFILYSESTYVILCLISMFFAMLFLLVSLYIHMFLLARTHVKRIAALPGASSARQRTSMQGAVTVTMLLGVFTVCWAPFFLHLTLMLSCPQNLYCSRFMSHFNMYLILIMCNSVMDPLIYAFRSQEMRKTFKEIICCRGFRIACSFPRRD

SMILES	Ki [1] [nM]	EC50 [2] [nM]	Ki [3] [nM]	EC50 [4] [nM]	Ki [5] [nM]	Ki [6] [nM]	Ki [7] [nM]	efficacy relative to NDP-α-MSH, MC4-R [2]	efficacy relative to NDP-α-MSH, MC3-R [4]	EC50 [9] [nM]	efficacy relative to NDP-α-MSH, MC1-R [9]	agonist/antagonist status as to MC4-R [2]	agonist/antagonist status as to MC3-R [4]	rats exhibiting at least one PE [8, 10] [%]	agonist/antagonist status as to MC1-R [9]	PE effect at 300 μg/kg compared with 1000 μg/kg ([8]; peak dose 300 μg/kg IV)	mean PEs per rat [8, 11]	rats exhibiting at least one PE [8, 11] [%]
CCCC[C@H](NC(C)=O)C(=O)N[C@H]1CC(=O)NCCCC[C@@H](C(=O)N(C)C)NC(=O)[C@H](Cc2c[nH]c3ccccc23)NC(=O)[C@H](CCCNC(=N)N)NC(=O)[C@@H](Cc2ccccc2)NC(=O)[C@H](Cc2c[nH]cn2)NC1=O [Example 8, Ac-Nle-cyclo(-Asp-His-D-Phe-Arg-Trp-Lys)-N(CH3)2]	7	0.2	0.27	17	8	0.5	–	–	–	–	–	agonist (response ratio compared to NDP-α-MSH of 0.7 and above were classified as full agonists)	agonist (response ratio compared to NDP-α-MSH of 0.7 and above were classified as full agonists)	100	–	–	–	–
CCCC[C@H](NC(C)=O)C(=O)N[C@H]1CC(=O)NCCCC[C@@H](C(=O)N(C)C)NC(=O)[C@H](Cc2cccc3ccccc23)NC(=O)[C@H](CCCNC(=N)N)NC(=O)[C@@H](Cc2ccccc2)NC(=O)[C@H](Cc2c[nH]c3ccccc23)NC1=O [Example 10, Ac-Nle-cyclo(-Asp-Trp-D-Phe-Arg-Nal 1-Lys)-N(CH3)2] (Ac-[Nle]DW[dF]R[1Nal]K-NMe2; lactam 2-7 (inferred))	–	–	–	–	–	50	> 1000	0.8	–	2300	1.1	agonist (response ratio compared to NDP-α-MSH of 0.7 and above were classified as full agonists)	inactive	–	agonist (response ratio compared to NDP-α-MSH of 0.7 and above were classified as full agonists)	–	–	–
CCCC[C@H](NC(C)=O)C(=O)N[C@H]1CC(=O)NCCCC[C@@H](C(=O)N(C)C)NC(=O)[C@H](Cc2cccc3ccccc23)NC(=O)[C@H](CCCNC(=N)N)NC(=O)[C@@H](Cc2ccccc2)NC(=O)[C@H](Cc2c[nH]cn2)NC1=O [Example 11, Ac-Nle-cyclo(-Asp-His-D-Phe-Arg-Nal 1-Lys)-N(CH3)2]	–	–	–	394	–	10	> 1000	0.7	1.1	15	0.8	agonist (response ratio compared to NDP-α-MSH of 0.7 and above were classified as full agonists)	agonist (response ratio compared to NDP-α-MSH of 0.7 and above were classified as full agonists)	100	agonist (response ratio compared to NDP-α-MSH of 0.7 and above were classified as full agonists)	the same	–	–

Second part, led by results:

Ki [1] [nM]	EC50 [2] [nM]	Ki [3] [nM]	EC50 [4] [nM]	Ki [5] [nM]	Ki [6] [nM]	Ki [7] [nM]	efficacy relative to NDP-α-MSH, MC4-R [2]	efficacy relative to NDP-α-MSH, MC3-R [4]	EC50 [9] [nM]	efficacy relative to NDP-α-MSH, MC1-R [9]	SMILES	agonist/antagonist status as to MC4-R [2]	agonist/antagonist status as to MC3-R [4]	rats exhibiting at least one PE [8, 10] [%]	agonist/antagonist status as to MC1-R [9]	PE effect at 300 μg/kg compared with 1000 μg/kg ([8]; peak dose 300 μg/kg IV)	mean PEs per rat [8, 11]	rats exhibiting at least one PE [8, 11] [%]
5	0.6	0.34	3	11	0.15	9	–	–	–	–	CCCC[C@H](NC(C)=O)C(=O)N[C@H]1CC(=O)NCCCC[C@@H](C(=O)NCC)NC(=O)[C@H](Cc2c[nH]c3ccccc23)NC(=O)[C@H](CCCNC(=N)N)NC(=O)[C@@H](Cc2ccccc2)NC(=O)[C@H](Cc2c[nH]cn2)NC1=O [Example 7, Ac-Nle-cyclo(-Asp-His-D-Phe-Arg-Trp-Lys)-NH—CH2—CH3]	agonist (response ratio compared to NDP-α-MSH of 0.7 and above were classified as full agonists)	agonist (response ratio compared to NDP-α-MSH of 0.7 and above were classified as full agonists)	100	–	–	–	–
–	–	–	208	–	7	–	0.6	1.0	8	0.6	CCCC[C@H](NC(C)=O)C(=O)N[C@H]1CC(=O)NCCCC[C@@H](C(=O)NCC)NC(=O)[C@H](Cc2cccc3ccccc23)NC(=O)[C@H](CCCNC(=N)N)NC(=O)[C@@H](Cc2ccccc2)NC(=O)[C@H](Cc2c[nH]cn2)NC1=O [Example 9, Ac-Nle-cyclo(-Asp-His-D-Phe-Arg-Nal 1-Lys)-NH—CH2—CH3]	partial agonist (Peptides with a ratio from 0.1 to 0.7 were classified as partial agonists)	agonist (response ratio compared to NDP-α-MSH of 0.7 and above were classified as full agonists)	100	partial agonist (Peptides with a ratio from 0.1 to 0.7 were classified as partial agonists)	–	–	–
–	–	–	283	–	11	457	0.6	1.0	64	0.6	CCNC(=O)[C@@H]1CCCCNC(=O)C[C@H](NC(C)=O)C(=O)N[C@@H](Cc2c[nH]cn2)C(=O)N[C@H](Cc2ccccc2)C(=O)N[C@@H](CCCNC(=N)N)C(=O)N[C@@H](Cc2c[nH]c3ccccc23)C(=O)N1 [Example 12, Ac-cyclo(-Asp-His-D-Phe-Arg-Trp-Lys)-NH—CH2—CH3]	partial agonist (Peptides with a ratio from 0.1 to 0.7 were classified as partial agonists)	agonist (response ratio compared to NDP-α-MSH of 0.7 and above were classified as full agonists)	–	partial agonist (Peptides with a ratio from 0.1 to 0.7 were classified as partial agonists)	–	2.5	83
